Where two headings read alike, the source gives them in different places. Square brackets hold non-standard residues; d marks the D form. Peptide text beside a SMILES is read from it. 1Nal = N[C@@H](Cc1cccc2ccccc12)C(=O)O; 2Nal = N[C@@H](Cc1ccc2ccccc2c1)C(=O)O; d1Nal = N[C@H](Cc1cccc2ccccc12)C(=O)O; d2Nal = N[C@H](Cc1ccc2ccccc2c1)C(=O)O; Bta = N[C@@H](Cc1csc2ccccc12)C(=O)O; dBta = N[C@H](Cc1csc2ccccc12)C(=O)O

The target in data set [1] is T1, rat KOR (Rattus norvegicus, UniProt P34975).
T1 construct: expressed in transfected cells
In words: radioligand equilibrium competition binding, KOR. To be noted: CHO cell membranes, [3H]diprenorphine; mean ± SEM, at least three experiments. How it is done: (§1) Opioid receptor affinities were determined by equilibrium radioligand binding assays as previously described with membranes from Chinese hamster ovary (CHO) cells stably expressing rat KOR, rat MOR, or mouse DOR using the radioligands [^3H]diprenorphine, [^3H][D-Ala^2,N-MePhe^4,glyol]enkephalin (DAMGO), and [^3H][D-Pen^2,D-Pen^5]enkephalin (DPDPE), respectively. Following determination of IC50 values by nonlinear regression using Prism software (GraphPad Software Co., La Jolla, CA, USA), Ki values were calculated using the Cheng–Prusoff equation [57]. The results are presented as the mean ± SEM from at least three separate experiments, each performed in triplicate.

The target of data set [2] is T2, rat MOR (Rattus norvegicus, UniProt P33535).
T2 construct: expressed in transfected cells
In words: radioligand equilibrium competition binding, MOR. The settings on record: CHO cell membranes, [3H]DAMGO; mean ± SEM, at least three experiments. How it is done: as §1

Data set [3] deals with T3, mouse DOR (Mus musculus, UniProt P32300).
T3 construct: expressed in transfected cells
In words: radioligand equilibrium competition binding, DOR. The settings on record: CHO cell membranes, [3H]DPDPE; mean ± SEM, at least three experiments (D-Nal(1′)^4 n = 2). How it is done:
as §1

A short description of data set [4]: metabolism by mouse liver microsomes. It counts as in vitro ADME. The settings on record: read-out: t1/2 in mouse liver microsomes. How it is done:
The metabolism of the macrocyclic tetrapeptides by mouse liver microsomes was evaluated as previously described, with the amount of peptide remaining determined by LC-MS/MS [55] using [D-MeAla^2]CJ-15,208 [53] as the internal standard.
(In general: Liver microsomes are vesicles of endoplasmic reticulum, rich in cytochrome P450 enzymes.)

The subject of data set [5] is C57BL/6J mice. Briefly: 55 °C warm-water tail-withdrawal assay, antinociception after i.c.v. administration. In kind it is in vivo, mouse. Details: key: ~: Maximum antinociception not achieved, precluding calculation of an ED50 value. How it is done: For intracerebroventricular administration, the macrocyclic peptides were dissolved in dimethyl sulfoxide (DMSO), followed by addition of sterile saline (0.9%) so that the final vehicle was 50% DMSO and 50% saline, and the i.c.v. injections were performed as described previously. This concentration of DMSO was not observed to have antinociceptive or behavioral effects in previous use. All solutions for animal administration were prepared fresh daily.
The 55 °C warm-water tail-withdrawal assay was performed in mice as previously described, with the latency of the mouse to withdraw its tail from the water taken as the endpoint (a cut-off time of 15 s was used in this assay). Antinociception was calculated according to the following formula: % antinociception = 100 × (test latency − control latency)/(15 − control latency). Tail-withdrawal data points are the means of 8–16 mice, unless otherwise indicated, with SEM shown by error bars.
All dose–response lines were analyzed by regression, and ED50 (effective dose producing 50% antinociception) values and 95% C.I. were determined using individual data points from graded dose–-response curves with Prism 8.0 software (GraphPad, La Jolla, CA, USA). Percent antinociception was used to determine within-group effects and to allow comparison to baseline latency in tail-withdrawal experiments. The statistical significance of differences between ED50 values was determined by evaluation of the ED50 value shift via nonlinear regression modeling with Prism software. Significant differences in behavioral data were analyzed by ANOVA (one-way or two-way with repeated measures (RM), as appropriate). Significant results were further analyzed with Sidak’s, Tukey’s, or Dunnett’s multiple comparison post hoc tests, as appropriate. Data for conditioned place preference experiments were analyzed by one-way or two-way RM ANOVA, with analyses examining the main effect of conditioned place preference phase (e.g., pre- or post-conditioning) and the interaction of drug pretreatment and/or exposure. All data are presented as mean ± SEM, with significance set at p < 0.05.

Data set [6] has as its system C57BL/6J mice. Briefly: acute antinociceptive tolerance (dosing at 0 and 8 h). The settings on record: i.c.v.; for Naïve ED50 (95% C.I.): naïve mice. How it is done: The degree of tolerance was calculated from the shift in ED50 value from the singly to repeatedly treated condition.
Data set [7] has as its system C57BL/6J mice. In words: respiration rate, CLAMS/Oxymax. It counts as in vivo, mouse. The settings on record: i.c.v.; [Nal(2′)^4]CJ-15,208 100 nmol, morphine 30 nmol; 80 min. How it is done:
(§2) Respiration rates (in breaths per minute) and animal locomotive activity (as ambulation) were assessed using the Oxymax/CLAMS system (Columbus Instruments, Columbus, OH, USA) as described previously. Mice were habituated to their individual sealed housing chambers for 60 min before testing. […] Pressure monitoring within the sealed chambers measured frequency of respiration. Infrared beams located in the floor measured locomotion as number of beam breaks. Respiration and locomotive data were averaged over 20 min periods for 80 min post-injection of the test compound. Data are presented as % vehicle response ± SEM; ambulation, or breaths per minute.

The subject of data set [8] is C57BL/6J mice. In words: spontaneous locomotor activity (ambulation), CLAMS/Oxymax. In kind it is in vivo, mouse. The settings on record: i.c.v.; [Nal(2′)^4]CJ-15,208 100 nmol, morphine 30 nmol; 80 min. How it is done: as §2
Data set [9] relates to C57BL/6J mice. The settings on record: mouse, in vivo.
Data set [10] concerns MOR, KOR, DOR. In words: opioid receptor involvement in antinociception (KO mice / selective antagonist pretreatment), tail-withdrawal assay. In kind it is in vivo, mouse. To be noted: dose producing maximum antinociception, i.c.v., KOR KO mice or β-FNA, nor-BNI, naltrindole pretreatment. How it is done:
Except for the Bta^4 analog, contributions of the MOR and KOR were assessed in knockout (KO) mice for those receptors; DOR contribution to the antinociceptive activity of the analogs was assessed by pretreating mice with naltrindole (20 mg/kg, i.p., −20 min) prior to administration of analog (Figure 3).
Assessment of DOR involvement in the agonist activity of each macrocyclic peptide was performed by pretreating additional wild-type mice with a single dose of naltrindole (20 mg/kg, i.p.) 20 min in advance of administration of the macrocyclic peptide.

Data set [11] concerns the target T4, KOR (Mus musculus, UniProt P33534).
T4 construct: endogenous in cells; host or cells: living adult male C57BL/6J mice
In words: antagonism of U50,488 antinociception, tail-withdrawal assay. The settings on record: peptide i.c.v. (3-300 nmol, Figure 4) 140 min before U50,488 10 mg/kg i.p. In kind it is in vivo. How it is done:
; at this time, the antinociceptive activity of the analogs had dissipated. Antinociception produced by the established opioid agonists was then measured 40 min after their administration. The dose response of KOR or DOR antagonism produced by selected analogs was further determined by evaluating antinociception after administration of one of three additional i.c.v. doses of the analog.

Data set [12] addresses T1, rat KOR. The settings on record: parent peptides; mean ± SEM; cited from earlier work.
The target in data set [13] is T2, rat MOR. The settings on record: parent peptides; mean ± SEM; cited from earlier work.
Data set [14] addresses T3, mouse DOR. To be noted: parent peptides; mean ± SEM; cited from earlier work.
The mark [15] stands for this setting: antinociception at peak response.
The mark [16] stands for this setting: acute tolerance, dosing at 0 and 8 h.

Turning to `O=C1N[C@@H](Cc2ccccc2)C(=O)N2CCC[C@@H]2C(=O)N[C@@H](Cc2ccccc2)C(=O)N[C@H]1Cc1csc2ccccc12` [Bta^4, [Bta^4]CJ-15,208] (cyclo(F[dP]F[Bta])), the inhibitory constant (Ki) in data set [1] worked out at 51.9 ± 4.8 nM; in [2], 90.3 ± 38.5 nM; in data set [3], 1600 ± 360 nM. Moreover, in data set [4], the half-life is 28 min. For the same molecule, the “ED50 (and 95% C.I.) i.c.v.” value in data set [5] (setting [15]) is on record as 13.2 (9.62–18.2) nmol.

With `O=C1N[C@H](Cc2csc3ccccc23)C(=O)N[C@@H](Cc2ccccc2)C(=O)N2CCC[C@@H]2C(=O)N[C@H]1Cc1ccccc1` [D-Bta^4, [D-Bta^4]CJ-15,208] (cyclo(F[dP]F[dBta])), the Ki in [1] is 4.29 ± 0.38 nM; in data set [2], 84.2 ± 11.8 nM; in data set [3] it was > 10000 nM.

As for `O=C1N[C@H](Cc2cccc3ccccc23)C(=O)N[C@@H](Cc2ccccc2)C(=O)N2CCC[C@@H]2C(=O)N[C@H]1Cc1ccccc1` [D-Nal(1′)^4, [D-Nal(1′)^4]CJ-15,208] (cyclo(F[dP]F[d1Nal])), the inhibitory constant (Ki) is 21.4 ± 0.7 nM in [1], 101 ± 25 nM in [2] and > 10000 nM in data set [3].

`O=C1N[C@H](Cc2ccc3ccccc3c2)C(=O)N[C@@H](Cc2ccccc2)C(=O)N2CCC[C@@H]2C(=O)N[C@H]1Cc1ccccc1` [D-Nal(2′)^4, [D-Nal(2′)^4]CJ-15,208] (cyclo(F[dP]F[d2Nal])): the Ki in [1] was 12.3 ± 1.8 nM; in data set [2], 63.8 ± 5 nM; in data set [3], > 10000 nM. For the same molecule, in data set [5] (setting [15]), the “ED50 (and 95% C.I.) i.c.v.” value is 31.2 (22.5–41.9) nmol.

Take `CN1CC[C@]23c4c5ccc(O)c4O[C@H]2[C@@H](O)C=C[C@H]3[C@H]1C5` [Morphine, reference compound]: the “ED50 (and 95% C.I.) i.c.v.” value in data set [5] (setting [15]) is 2.35 (1.13–5.03) nmol. Besides, the “Naïve ED50 (95% C.I.)” value in data set [6] was 2.35 (1.13–5.03) nmol. Moreover, in [7], the “effect on respiration rate vs. vehicle” value is on record as “produced significant, time-dependent respiratory depression”. Also, the “effect on ambulation vs. vehicle” value in data set [8] is recorded as “significantly increased ambulation”. In data set [9] (C57BL/6J), the “conditioned place preference or aversion” value is given as “significant (p = 0.03) place preference”.

On to `O=C1N[C@@H](Cc2ccccc2)C(=O)N2CCC[C@@H]2C(=O)N[C@@H](Cc2ccccc2)C(=O)N[C@H]1Cc1cccc2ccccc12` [Nal(1′)^4, [Nal(1′)^4]CJ-15,208] (cyclo(F[dP]F[1Nal])), for which the Ki turned out to be 103 ± 6 nM in data set [1], 110 ± 16 nM in data set [2] and 1920 ± 120 nM in data set [3]. Also, the “ED50 (and 95% C.I.) i.c.v.” value in data set [5] (setting [15]) is on record as 0.24 (0.19–0.31) nmol.

Take `O=C1N[C@@H](Cc2ccccc2)C(=O)N2CCC[C@@H]2C(=O)N[C@@H](Cc2ccccc2)C(=O)N[C@H]1Cc1ccc2ccccc2c1` [Nal(2′)^4, [Nal(2′)^4]CJ-15,208] (cyclo(F[dP]F[2Nal])): the Ki turned out to be 358 ± 137 nM in data set [1], 583 ± 59 nM in data set [2] and 3300 ± 360 nM in [3]. Further, the half-life in data set [4] was > 60 min. The “ED50 (and 95% C.I.) i.c.v.” value in data set [5] (setting [15]) is listed as 19.5 (15.8–24.0) nmol. The “Fold-Shift, Naïve ED50 vs. Second ED50” value in data set [6] (setting [16]) is 0.37. Besides, in [6] (setting [16]), the “leftward shift in the dose–response curve of the second dose” value was found to be 2.7 fold. Also, the “Naïve ED50 (95% C.I.)” value in [6] is 19.5 (15.8–24.0) nmol. The “effect on respiration rate vs. vehicle” value in data set [7] is given as “did not significantly impair breathing”. In addition, in data set [8], the “effect on ambulation vs. vehicle” value is recorded as “not significant”. Moreover, in data set [9], the “conditioned place preference or aversion” value is “no significant preference or aversion”.

Regarding cyclo(F[dP]FW) [CJ-15,208], in data set [5] (setting [15]), the “ED50 (and 95% C.I.) i.c.v.” value is reported as 1.74 (0.62–4.82) nmol. The “Receptors Involved in antinociception” value in [10] is listed as “KOR, MOR”. Besides, the “antagonism of U50,488 antinociception (KOR antagonism)” value in [11] is “displayed significant KOR antagonism”. Further, the Ki in [12] is 27.4 ± 4.6 nM; in [13], 451 ± 114 nM; in [14], 1720 ± 350 nM.

For the molecule cyclo(F[dP]F[dW]) [[D-Trp]CJ-15,208], the “ED50 (and 95% C.I.) i.c.v.” value in data set [5] (symbol where no ED50 could be calculated) is “~”. Besides, the “antagonism of U50,488 antinociception (KOR antagonism)” value in data set [11] is “significantly antagonized U50,488-induced antinociception”. The Ki is 21.8 ± 4.8 nM in data set [12], 259 ± 29 nM in data set [13] and 4190 ± 860 nM in data set [14].

As a reminder, the Ki is a dissociation constant, usually derived from enzyme kinetics or from competition with a known ligand.

The values are drawn from article PMC10535824, “Tryptophan Substitution in CJ-15,208 (cyclo[Phe-D-Pro-Phe-Trp]) Introduces δ-Opioid Receptor Antagonism, Preventing Antinociceptive Tolerance and Stress-Induced Reinstatement of Extinguished Cocaine-Conditioned Place Preference” (Pharmaceuticals, 2023).
